Reference: patent publication US20180251431A1 (VERTEX PHARMACEUTICALS INCORPORATED, priority 2016, published 2018)

System: HEK293 cells
Experiment: HEK293 VLCFA-LPC IC50 determination (13C-labeled C26:0 LPC by UHPLC/MS)
Assay type: cell-based, human
Settings: Homo sapiens, HEK293, HEK293 cells; average of one or more replicates; read-out: Average HEK293 IC50
In short: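 Suspension HEK293 cells (final 0.5 million/mL after mixing with equal volume) incubated 48 hours with compound plus 13C-acetate (1.0 mg/mL in added media), shaking at 37° C. Lipids extracted with hexane/isopropanol or methanol, C13:0 LPC standard. UHPLC/MS of 13C-labeled C26:0 LPC (638.500/104.100 m/z); IC50 by four-parameter fit.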

Structure (SMILES) | IC50 [nM]
O=C(Cc1ccccc1)Nc1ccn(-c2ccc(Cl)nc2)n1 [Compound 103, N-[1-(6-chloro-3-pyridyl)pyrazol-3-yl]-2-phenyl-acetamide] | 580
O=C(Cc1ccccc1F)Nc1ccn(-c2ccc(Cl)nc2)n1 [Compound 104, N-[1-(6-chloro-3-pyridyl)pyrazol-3-yl]-2-(2-fluorophenyl)acetamide] | 320
O=C(Cc1ccc(F)cc1)Nc1ccn(-c2ccc(Cl)nc2)n1 [Compound 105, N-[1-(6-chloro-3-pyridyl)pyrazol-3-yl]-2-(4-fluorophenyl)acetamide] | > 5000
O=C(Nc1ccn(-c2ccc(Cl)nc2)n1)C1(c2ccccc2)CC1 [Compound 106, N-[1-(6-chloro-3-pyridyl)pyrazol-3-yl]-1-phenyl-cyclopropanecarboxamide] | 250
O=C(Nc1ccn(-c2ccc(Cl)nc2)n1)C1(c2ccccc2F)CC1 [Compound 107, N-[1-(6-chloro-3-pyridyl)pyrazol-3-yl]-1-(2-fluorophenyl)cyclopropanecarboxamide] | 84
Cc1cc(-n2ccc(NC(=O)C3(c4ccc(F)cc4)CC3)n2)ccn1 [Compound 108, 1-(4-fluorophenyl)-N-[1-(2-methyl-4-pyridyl)pyrazol-3-yl]cyclopropanecarboxamide] | 770
Cc1cc(-n2ccc(NC(=O)Cc3ccccc3)n2)ccn1 [Compound 109, N-[1-(2-methyl-4-pyridyl)pyrazol-3-yl]-2-phenyl-acetamide] | > 10000
Cc1cc(-n2ccc(NC(=O)Cc3ccccc3F)n2)ccn1 [Compound 110, 2-(2-fluorophenyl)-N-[1-(2-methyl-4-pyridyl)pyrazol-3-yl]acetamide] | > 10000
Cc1cc(-n2ccc(NC(=O)Cc3ccc(F)cc3)n2)ccn1 [Compound 111, 2-(4-fluorophenyl)-N-[1-(2-methyl-4-pyridyl)pyrazol-3-yl]acetamide] | > 10000
Cc1cc(-n2ccc(NC(=O)C3(c4ccccc4)CC3)n2)ccn1 [Compound 112, N-[1-(2-methyl-4-pyridyl)pyrazol-3-yl]-1-phenyl-cyclopropanecarboxamide] | 910
Cc1cc(-n2ccc(NC(=O)C3(c4ccccc4F)CC3)n2)ccn1 [Compound 113, 1-(2-fluorophenyl)-N-[1-(2-methyl-4-pyridyl)pyrazol-3-yl]cyclopropanecarboxamide] | 1600
O=C(Cc1ccccc1)Nc1ccn(-c2cc(F)ncc2F)n1 [Compound 114, N-[1-(2,5-difluoro-4-pyridyl)pyrazol-3-yl]-2-phenyl-acetamide] | 1200
O=C(Nc1ccn(-c2cc(F)ncc2F)n1)C1(c2ccccc2)CC1 [Compound 115, N-[1-(2,5-difluoro-4-pyridyl)pyrazol-3-yl]-1-phenyl-cyclopropanecarboxamide] | 120
O=C(Nc1ccn(-c2cc(F)ncc2F)n1)C1(c2ccccc2F)CC1 [Compound 116, N-[1-(2,5-difluoro-4-pyridyl)pyrazol-3-yl]-1-(2-fluorophenyl)cyclopropanecarboxamide] | 76
Cc1ccc(-n2ccc(NC(=O)Cc3ccccc3)n2)cn1 [Compound 117, N-[1-(6-methyl-3-pyridyl)pyrazol-3-yl]-2-phenyl-acetamide] | > 5000
Cc1ccc(-n2ccc(NC(=O)C3(c4ccccc4)CC3)n2)cn1 [Compound 118, N-(1-(6-methylpyridin-3-yl)-1H-pyrazol-3-yl)-1-phenylcyclopropane-1-carboxamide] | 1300
Cc1ccc(-n2ccc(NC(=O)Cc3ccccc3F)n2)cn1 [Compound 119, 2-(2-fluorophenyl)-N-[1-(6-methyl-3-pyridyl)pyrazol-3-yl]acetamide] | 3500
Cc1ccc(-n2ccc(NC(=O)C3(c4ccccc4F)CC3)n2)cn1 [Compound 120, 1-(2-fluorophenyl)-N-[1-(6-methyl-3-pyridyl)pyrazol-3-yl]cyclopropanecarboxamide] | 620
O=C(Cc1ccccc1)Nc1ccn(-c2cccc(Cl)c2)n1 [Compound 121, N-[1-(3-chlorophenyl)pyrazol-3-yl]-2-phenyl-acetamide] | 650
O=C(Cc1ccccc1F)Nc1ccn(-c2ccnc(C(F)(F)F)c2)n1 [Compound 122, 2-(2-fluorophenyl)-N-[1-[2-(trifluoromethyl)-4-pyridyl]pyrazol-3-yl]acetamide] | 1600
O=C(Cc1ccccc1)Nc1ccn(-c2ccnc(C(F)(F)F)c2)n1 [Compound 123, 2-phenyl-N-[1-[2-(trifluoromethyl)-4-pyridyl]pyrazol-3-yl]acetamide] | 1500
O=C(Nc1ccn(-c2cccc(F)c2)n1)C1(c2ccccc2F)CC1 [Compound 124, 1-(2-fluorophenyl)-N-[1-(3-fluorophenyl)pyrazol-3-yl]cyclopropanecarboxamide] | 41
O=C(Nc1ccn(-c2cccc(F)c2)n1)C1(c2ccccc2)CC1 [Compound 125, N-[1-(3-fluorophenyl)pyrazol-3-yl]-1-phenyl-cyclopropanecarboxamide] | 71

Structure (SMILES) | IC50 [nM]
O=C(Cc1ccccc1F)Nc1ccn(-c2cccc(F)c2)n1 [Compound 126, 2-(2-fluorophenyl)-N-[1-(3-fluorophenyl)pyrazol-3-yl]acetamide] | 500
O=C(Cc1ccccc1)Nc1ccn(-c2cccc(F)c2)n1 [Compound 127, N-[1-(3-fluorophenyl)pyrazol-3-yl]-2-phenyl-acetamide] | 810
O=C(Nc1ccn(-c2cccc(Cl)c2)n1)C1(c2ccccc2F)CC1 [Compound 128, N-[1-(3-chlorophenyl)pyrazol-3-yl]-1-(2-fluorophenyl)cyclopropanecarboxamide] | 230
O=C(Nc1ccn(-c2cccc(Cl)c2)n1)C1(c2ccccc2)CC1 [Compound 129, N-[1-(3-chlorophenyl)pyrazol-3-yl]-1-phenyl-cyclopropanecarboxamide] | 700
O=C(Cc1ccccc1F)Nc1ccn(-c2cccc(Cl)c2)n1 [Compound 130, N-[1-(3-chlorophenyl)pyrazol-3-yl]-2-(2-fluorophenyl)acetamide] | 1500
O=C(Nc1ccn(-c2ccc(Cl)cc2)n1)C1(c2ccccc2F)CC1 [Compound 131, N-[1-(4-chlorophenyl)pyrazol-3-yl]-1-(2-fluorophenyl)cyclopropanecarboxamide] | 480
O=C(Nc1ccn(-c2ccc(Cl)cc2)n1)C1(c2ccccc2)CC1 [Compound 132, N-[1-(4-chlorophenyl)pyrazol-3-yl]-1-phenyl-cyclopropanecarboxamide] | > 5000
O=C(Cc1ccccc1F)Nc1ccn(-c2ccc(Cl)cc2)n1 [Compound 133, N-[1-(4-chlorophenyl)pyrazol-3-yl]-2-(2-fluorophenyl)acetamide] | > 5000
O=C(Cc1ccccc1)Nc1ccn(-c2ccc(Cl)cc2)n1 [Compound 134, N-[1-(4-chlorophenyl)pyrazol-3-yl]-2-phenyl-acetamide] | > 5000
CC1(C)CC1(C(=O)Nc1ccn(-c2ccccc2)n1)c1ccccc1F (stereo not shown) [Compound 135, 1-(2-fluorophenyl)-2,2-dimethyl-N-(1-phenylpyrazol-3-yl)cyclopropanecarboxamide] | 680
CC1(C)CC1(C(=O)Nc1ccn(-c2ccccc2)n1)c1ccccc1 (stereo not shown) [Compound 136, 2,2-dimethyl-1-phenyl-N-(1-phenylpyrazol-3-yl)cyclopropanecarboxamide] | 940
O=C(Nc1ccn(-c2ccncc2F)n1)C1(c2ccccc2F)CC1 [Compound 137, 1-(2-fluorophenyl)-N-[1-(3-fluoro-4-pyridyl)pyrazol-3-yl]cyclopropanecarboxamide] | 120
O=C(Nc1ccn(-c2ccncc2F)n1)C1(c2ccccc2)CC1 [Compound 138, N-(1-(3-fluoropyridin-4-yl)-1H-pyrazol-3-yl)-1-phenylcyclopropane-1-carboxamide] | 55
O=C(Cc1ccccc1F)Nc1ccn(-c2ccncc2F)n1 [Compound 139, 2-(2-fluorophenyl)-N-[1-(3-fluoro-4-pyridyl)pyrazol-3-yl]acetamide] | 400
O=C(Cc1ccccc1)Nc1ccn(-c2ccncc2F)n1 [Compound 140, N-[1-(3-fluoro-4-pyridyl)pyrazol-3-yl]-2-phenyl-acetamide] | 1100
O=C(Nc1ccn(-c2ccccc2)n1)C1(c2ccccc2)CC1(Cl)Cl (stereo not shown) [Compound 141, 2,2-dichloro-1-phenyl-N-(1-phenylpyrazol-3-yl)cyclopropanecarboxamide] | 340
O=C(Nc1ccn(-c2ccccc2)n1)C1(c2ccccc2)CCCCC1 [Compound 142, 1-phenyl-N-(1-phenylpyrazol-3-yl)cyclohexanecarboxamide] | > 5000
O=C(Nc1ccn(-c2ccccc2)n1)C1(c2ccccc2)COC1 [Compound 144, 3-phenyl-N-(1-phenylpyrazol-3-yl)oxetane-3-carboxamide] | 260
O=C(Nc1ccn(-c2ccccc2)n1)[C@]1(c2ccccc2)CC12CCCC2 [Compound 145, (2R)-2-phenyl-N-(1-phenylpyrazol-3-yl)spiro[2.4]heptane-2-carboxamide] | > 5000
O=C(Nc1ccn(-c2ccccc2)n1)[C@@]1(c2ccccc2)CC12CCC2 [Compound 146, (2S)-2-phenyl-N-(1-phenylpyrazol-3-yl)spiro[2.3]hexane-2-carboxamide] | 87
O=C(Nc1ccn(-c2ccnc(F)c2)n1)C1(c2ccccc2)CC1(Cl)Cl (stereo not shown) [Compound 147, 2,2-dichloro-N-[1-(2-fluoro-4-pyridyl)pyrazol-3-yl]-1-phenyl-cyclopropanecarboxamide] | 280
O=C(Nc1ccn(-c2ccnc(F)c2)n1)C1(c2ccccc2)CCCCC1 [Compound 148, N-[1-(2-fluoro-4-pyridyl)pyrazol-3-yl]-1-phenyl-cyclohexanecarboxamide] | > 5000
O=C(Nc1ccn(-c2ccnc(F)c2)n1)C1(c2ccccc2)COC1 [Compound 149, N-[1-(2-fluoro-4-pyridyl)pyrazol-3-yl]-3-phenyl-oxetane-3-carboxamide] | 660
